# Measured values reported in patent US20110098288A1, “SULFONAMIDES AS ZAP-70 INHIBITORS” (priority 2008, published 2011).
# Assays:
# [1] = target: T1, ZAP-70 (Homo sapiens, UniProt P43403); assay: ZAP-70 kinobeads assay; type: binding; settings: competition with immobilized aminopyrido-pyrimidine ligand 24 in cell lysate; ZAP-70 detected by dot blot
# T1 construct: endogenous in cells; host or cells: cell lysate
# T1 sequence (P43403 1-619): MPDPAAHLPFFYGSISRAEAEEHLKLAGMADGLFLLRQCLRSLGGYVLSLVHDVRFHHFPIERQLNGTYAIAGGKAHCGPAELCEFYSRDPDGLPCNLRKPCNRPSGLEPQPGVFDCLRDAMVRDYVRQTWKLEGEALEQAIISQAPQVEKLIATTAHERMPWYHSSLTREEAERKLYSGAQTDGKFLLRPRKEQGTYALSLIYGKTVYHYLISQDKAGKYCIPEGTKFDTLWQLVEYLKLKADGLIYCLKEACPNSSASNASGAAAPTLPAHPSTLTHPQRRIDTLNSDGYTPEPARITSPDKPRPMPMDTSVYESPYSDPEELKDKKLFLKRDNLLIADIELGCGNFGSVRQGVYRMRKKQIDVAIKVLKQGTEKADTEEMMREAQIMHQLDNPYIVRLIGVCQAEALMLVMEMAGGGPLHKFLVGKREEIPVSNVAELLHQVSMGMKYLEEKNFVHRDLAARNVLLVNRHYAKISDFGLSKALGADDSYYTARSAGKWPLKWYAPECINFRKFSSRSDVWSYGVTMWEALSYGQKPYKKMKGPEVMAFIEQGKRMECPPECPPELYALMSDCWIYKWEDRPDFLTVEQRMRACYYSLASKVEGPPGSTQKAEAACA
# Outline: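 Cell lysate aliquots incubated with test compounds at various concentrations plus affinity beads carrying immobilized aminopyrido-pyrimidine ligand 24. Bead-captured proteins eluted; ZAP-70 quantified by specific antibody dot blot with infrared detection.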
# [2] = system: Jurkat cells; assay: Calcium release assay (Fluo-4 flow cytometry after anti-CD3 stimulation); type: cell-based; settings: Homo sapiens, Jurkat cell line J77, anti-CD3 activation, read-out: IC50 (Calcium ion release in cells)
# Method: Compounds of the present invention were tested in a Calcium release assay as described below.
# The development of fluorescent probes makes it possible to measure the concentration of intracellular free Calcium ions in single living cells. Cells are first loaded with a cell-permeable Ca^2+-sensitive dye, then the test compound is added. Finally, cells are activated through the T cell receptor with an anti-CD3 antibody shortly before data acquisition on the flow cytometer. The release of Ca^2+ is measured as a function of time after cell stimulation. This protocol describes the flow cytometry method using the Fluo-3 and Fluo-4 dyes (Minta et al., 1989, J. Biol. Chem. 264(14):8171-8178) to measure the intracellular Ca^2+ concentration in Jurkat cells (see also June et al., 1997, Measurement of intracellular calcium ions by flow cytometry. In: Current Protocols in Cytometry (1997) Unit 9.8.1-9.8.19, John Wiley & Sons, Inc.).
# In general, cells should be handled in the shortest time possible to assure their stability. Therefore the preparation of all materials in advance is highly recommended as well as using any incubation or centrifugation time to prepare the next steps (e.g. preparing compound dilution or starting the flow cytometer).
# 1) Prepare a work plan indicating the number of samples to be analyzed including controls. 2) Cell harvest: Centrifuge 50 to 100 ml of a Jurkat cell culture for 5 minutes at 1100 rpm. Discard the supernatant, pool the resuspended cell pellets in a single 50 ml Falcon tube, and fill up to 50 ml with PBS—CaCl2 (without FCS). Centrifuge again sample again. 3) Resuspend cell pellet with PBS—CaCl2 (without FCS) to achieve a concentration not lower than 10×10^6 cells/ml. Prepare an adequate dilution to evaluate the cell concentration and count the cells. 4) Separate the volume of cells needed to be loaded (for example […] for 20 samples) in a 50 ml Falcon tube. Fill up with PBS—CaCl2 to 900 μl for 107 cells. 5) Prepare in the dark a 1:1 mix of FLUO-4 (1 mM)+Pluronic F-127 (20%). 5 μl of Fluo-4 are needed per 107 cells. 6) Prepare a 1/10 dilution of this mix with PBS—CaCl2 (in the dark; for example 5 μl Fluo-4+5 μl F-127 completed to 100 μl). 7) Add the dye solution to the cells. […] 8) Incubate the sample for 30 minutes in a cell incubator (37° C., 5% CO2). Mix from time to time. 9) During this time prepare the adequate test compound dilution in PBS—CaCl2 (with 10% FCS). The solution should be 10 times more concentrated than the desired final concentration. Vortex each dilution. Prepare also the antibody dilutions: anti-CD3 (1/200) and GAM (1/25). 10) Label FACS tubes and distribute in the corresponding tube 30 μl of the compound dilution or only buffer for the control tubes. 11) After 30 minutes of incubation wash the cells twice in PBS—CaCl2 (with 10% FCS). During the washing steps make sure that the flow cytometer is already “ON” in order to warm the laser. 12) Resuspend the cell pellet in PBS—CaCl2 (with 10% FCS) at a concentration of 1.5×10^6 cells/ml. 13) Distribute 300 μl of cell suspension into the FACS tubes and mix gently. The compound incubation is starting. Keep samples at room temperature in the dark. 14) Open the settings of the cytometer. It is advised to have a template ready which is used for all measurements. Settings of the machine should also be the same from one experiment to the other which permits to evaluate the reproducibility of the cell preparation. 15) In Setup modus control your cell preparation on the cytometer. Cells should fit in the pre-defined gates. 16) During the compound incubation time, check also that cells are responding to the anti-CD3 activation as expected. Set a timer at 8 sec. Add 6 μl of anti-CD3 dilution (0.2 μg/ml final) and mix gently. Add 1 μl of GAM dilution (0.75 μg/ml final) and mix gently. Incubate the samples in water bath at 37° C. while starting timer. After 8 seconds of incubation, acquire data at medium speed for 200 seconds. […]
Structure (SMILES),IC50 [1],IC50 [2]
"CN1CCCC(COc2cccc(Nc3ncc(Cl)c(Nc4ccccc4NS(C)(=O)=O)n3)c2)C1 (stereo not drawn) [Example 146, N-(2-(5-chloro-2-(3-((1-methylpiperidin-3-yl)methoxy)phenylamino)pyrimidin-4-ylamino)phenyl)methanesulfonamide]",< 100 nM,< 100 nM
CS(=O)(=O)Nc1ccccc1Nc1nc(Nc2ccc(OCCN3CCCCC3)cc2)ncc1F [Example 87],100 to 1000 nM,< 100 nM
"CCOc1cccc(Nc2nc(Nc3cc(OC)c(OC)c(OC)c3)ncc2F)c1NS(C)(=O)=O [Example 166, N-(2-ethoxy-6-(5-fluoro-2-(3,4,5-trimethoxyphenylamino)pyrimidin-4-ylamino)phenyl)methanesulfonamide]",< 100 nM,100 to 1000 nM
"COc1cc(Nc2nccc(Nc3cccc(C)c3NS(C)(=O)=O)n2)cc(OC)c1OC [Example 176, N-(2-methyl-6-(2-(3,4,5-trimethoxyphenylamino)pyrimidin-4-ylamino)phenyl)methanesulfonamide]",100 to 1000 nM,< 100 nM
"CCOc1cc(Nc2ncc(F)c(Nc3cccc(C)c3NS(C)(=O)=O)n2)cc(OC)c1OC [Example 117, N-(2-(2-(3-ethoxy-4,5-dimethoxyphenylamino)-5-fluoropyrimidin-4-ylamino)-6-methylphenyl)methanesulfonamide]",< 100 nM,100 to 1000 nM
"COc1cc(Nc2ncc(F)c(Nc3cccc(Cl)c3NS(C)(=O)=O)n2)cc(OC)c1OC [Example 184, N-(2-chloro-6-(5-fluoro-2-(3,4,5-trimethoxyphenylamino)pyrimidin-4-ylamino)phenyl)methanesulfonamide]",100 to 1000 nM,100 to 1000 nM
"COc1ccc(Nc2ncc(F)c(Nc3ccccc3NS(C)(=O)=O)n2)cc1 [Example 35, N-(2-(5-fluoro-2-(4-methoxyphenylamino)pyrimidin-4-ylamino)phenyl)methanesulfonamide]",100 to 1000 nM,100 to 1000 nM
"Cc1cc(C)cc(Nc2ncc(F)c(Nc3ccccc3NS(C)(=O)=O)n2)c1 [Example 3, N-(2-(2-(3,5-dimethylphenylamino)-5-fluoropyrimidin-4-ylamino)phenyl)methanesulfonamide]",100 to 1000 nM,100 to 1000 nM
"CS(=O)(=O)Nc1ccccc1Nc1nc(Nc2ccc3c(c2)OCCO3)ncc1F [Example 4, N-(2-(2-(2,3-dihydrobenzo[b][1,4]dioxin-6-ylamino)-5-fluoropyrimidin-4-ylamino)phenyl)methanesulfonamide]",1000 to 10000 nM,100 to 1000 nM
"CS(=O)(=O)Nc1ccccc1Nc1nc(Nc2cccc(-n3cncn3)c2)ncc1F [Example 21, N-(2-(2-(3-(1H-1,2,4-triazol-1-yl)phenylamino)-5-fluoropyrimidin-4-ylamino)phenyl)methanesulfonamide]",1000 to 10000 nM,100 to 1000 nM
"CN1CCN(CCCOc2ccc(Nc3ncc(Cl)c(Nc4ccccc4NS(C)(=O)=O)n3)cc2)CC1 [Example 136, N-(2-(5-chloro-2-(4-(3-(4-methylpiperazin-1-yl)propoxy)phenylamino)pyrimidin-4-ylamino)phenyl)methanesulfonamide]",< 100 nM,< 100 nM
"COc1cc(Nc2ncc(Cl)c(Nc3ccccc3NS(C)(=O)=O)n2)cc(OCC(C)C)c1OC [Example 137, N-(2-(5-chloro-2-(3-isobutoxy-4,5-dimethoxyphenylamino)pyrimidin-4-ylamino)phenyl)methanesulfonamide]",< 100 nM,100 to 1000 nM
"CN(C)c1ccc(Nc2ncc(F)c(Nc3ccccc3NS(C)(=O)=O)n2)cc1 [Example 7, N-(2-(2-(4-(dimethylamino)phenylamino)-5-fluoropyrimidin-4-ylamino)phenyl)methanesulfonamide]",100 to 1000 nM,100 to 1000 nM
"Cc1cc(C)cc(Nc2ncc(C)c(Nc3ccccc3NS(C)(=O)=O)n2)c1 [Example 67, N-(2-(2-(3,5-dimethylphenylamino)-5-methylpyrimidin-4-ylamino)phenyl)methanesulfonamide]",100 to 1000 nM,100 to 1000 nM
"COc1cc(Nc2ncc(F)c(Nc3ccccc3NS(C)(=O)=O)n2)cc(OC)c1 [Example 37, N-(2-(2-(3,5-dimethoxyphenylamino)-5-fluoropyrimidin-4-ylamino)phenyl)methanesulfonamide]",100 to 1000 nM,100 to 1000 nM
"COc1cc(Nc2ncc(Br)c(Nc3ccccc3NS(C)(=O)=O)n2)cc(OC)c1OC [Example 70, N-(2-(5-bromo-2-(3,4,5-trimethoxyphenylamino)pyrimidin-4-ylamino)phenyl)methanesulfonamide]",< 100 nM,100 to 1000 nM
"COc1cc(Nc2ncc(F)c(Nc3ccc(OC(C)C)cc3NS(C)(=O)=O)n2)cc(OC)c1OC [Example 182, N-(2-(5-fluoro-2-(3,4,5-trimethoxyphenylamino)pyrimidin-4-ylamino)-5-isopropoxyphenyl)methanesulfonamide]",< 100 nM,< 100 nM
"COc1cc(Nc2ncc(F)c(Nc3ccccc3NS(C)(=O)=O)n2)cc(OC)c1OC [Example 1, N-(2-(5-fluoro-2-(3,4,5-trimethoxyphenylamino)pyrimidin-4-ylamino)phenyl)methanesulfonamide]",100 to 1000 nM,100 to 1000 nM
"CS(=O)(=O)Nc1ccccc1Nc1nc(Nc2cccc(OCC3CCNCC3)c2)ncc1Cl [Example 129, N-(2-(5-chloro-2-(3-(piperidin-4-ylmethoxy)phenylamino)pyrimidin-4-ylamino)phenyl)methanesulfonamide]",< 100 nM,100 to 1000 nM
"CN1CCN(CCCOc2ccc(Nc3ncc(F)c(Nc4ccccc4NS(C)(=O)=O)n3)cc2)CC1 [Example 91, N-(2-(5-fluoro-2-(4-(3-(4-methylpiperazin-1-yl)propoxy)phenylamino)pyrimidin-4-ylamino)phenyl)methanesulfonamide]",100 to 1000 nM,100 to 1000 nM
"CS(=O)(=O)Nc1ccccc1Nc1nc(Nc2cccc(OCCN3CCCC3)c2)ncc1Cl [Example 140, N-(2-(5-chloro-2-(3-(2-(pyrrolidin-1-yl)ethoxy)phenylamino)pyrimidin-4-ylamino)phenyl)methanesulfonamide]",< 100 nM,< 100 nM
